The record followed here is patent US11873267B2, “Functionalized N,N-dialkylamino phenyl ethers and their method of use” (Temple University-Of The Commonwealth System of Higher …, priority 2016, dated 2024).

As usually defined, the EC50 is the concentration giving half of the maximal effect.

Where a name gives a salt, the structure may show the parent alone.

The subject of assay [1] is Gaucher patient fibroblasts (Coreill Institute, GM08760). Nature of the assay: GPN induced calcium release phenotypic assay on Gaucher patient fibroblasts. It is filed as cell-based, human. Particulars: for Maximal % Change in GPN Response: ratio of GPN response with drug / without drug x 100; for EC50: Homo sapiens, Fibroblast, 12-point dilution curve in triplicate.
For assay [2], the system named is β-Glucocerebrosidase (GCase). Briefly: β-Glucocerebrosidase (GCase) activity in lysates of compound-treated Gaucher patient fibroblasts (4-MUG substrate). The class given is cell-based, human. Particulars: 10 μM, 3 days, Gaucher patient fibroblast lysates, no change = 1. Here is the method:
Cellular lysates were prepared from compound treated cells and non-treated cells were included as a control. β-Glucocerebrosidase (GCase) activity was directly measured from lysates prepared from treated cells using a fluorescent substrate 4-methylumbelliferyl-β-D-glucopyranoside (MUG). Cells were washed 3× with phosphate-buffered saline (PBS) and detached by scraping. After centrifugation, The pellets were frozen on dry ice, thawed and lysed in McIlvaine (MI) buffer (100 mM sodium citrate, 200 mM sodium phosphate dibasic, 0.25% sodium taurocholate, and 0.1% Triton X-100, pH 5.2 containing protease inhibitors). Lysates are incubated with 3.0 mM 4-methylumbeliferryl-β-glucoside (4-MUG) substrate in MI buffer (50 μL) at 37° C. for 60 minutes. Reactions were stopped by addition of 0.4 M glycine, pH 10.6 (70 μL). Fluorescence was measured on a Clariostar plate reader (BMG Labtech) for one second per well using 355 nm excitation and 460 nm emission. Total protein was determined with the Bradford protein assay kit (BioRad) according to the manufacturer's instructions. The GCase activity measured after compound treatment is normalized to non-treated cells and expressed as relative activity where no change in GCAse activity is equal 1 (FIG. 3).

In assay [3] the test system is Wild-type patient fibroblasts (Coriell Institute, GM 005659). The settings on record: wild type patient cells. Here is the method: Gaucher patient fibroblasts (Coreill Institute, GM08760) were cultured in EMEM with 15% FBS, 1% Pen/Strep at 37° C./5% CO2. Wild-type patient fibroblasts (Coriell Institute, GM 005659) were used as a control cell line. Cells are plated with a MultiFlo dispenser (800 cells/well in 30 μL of complete growth media) in black/clear bottom 384-well plates and cultured for 24 hours at 37° C., 5% CO2. Compounds of the disclosure are then added to the cells (12 point dose response curve, 150 nM to 30 uM final compound concentration using a 5.0 μL of a 7× stock solution (1.05 μM to 210 μM)) under sterile conditions and continued in culture for 72 hours at 37° C., 5% CO2. […] The data from each well were normalized with basal fluorescence by dividing the maximum fluorescence over the entire real time reading by the initial basal fluorescence.
Cells (800 cells/well) were plated with a MultiFlo dispenser (BioTek) and cultured for 24 h at 37° C., 5% CO2. […] Cells were loaded with Screen Quest™ Fluo-8 No Wash Calcium mix (ATT Bio) and analyzed for changes in response to GPN. The data from each well were normalized with basal fluorescence by dividing the maximum fluorescence over the entire real time reading by the initial basal fluorescence. […] EC50 and Hill slope values are determined using a four-parameter dose-response (variable slope) equation in GraphPad Prism.

Where [4] appears, read: Gaucher patient cells, 72 hours compound treatment.

In the case of `CC/C(=C/c1ccc(OCCN(C)C)cc1)c1ccc([N+](=O)[O-])cc1` [Example 6, (Z)—N,N-Dimethyl-2-(4-(2-(4-nitrophenyl)but-1-en-1-yl)phenoxy) ethan-1-amine], in assay [1] (setting [4]), the “Maximal % Change in GPN Response” value was determined as 47% and the EC50 turned out to be 4.3 µM.

Consider `C=Cc1ccccc1C(CCCC)C(=O)c1ccc(OCCN(C)C)cc1` (stereo not drawn) [Example 15, 1-(4-(2-(dimethylamino)ethoxy)phenyl)-2-(2-vinylphenyl)hexan-1-one], for which, in assay [1] (setting [4]), the “Maximal % Change in GPN Response” value turned out to be 217% and the EC50 stood at 2.7 µM.

In the case of `CCCCC(C(=O)c1ccc(OCCN(C)C)cc1)c1ccccc1C(C)C` (stereo not drawn) [Example 18, 1-(4-(2-(Dimethylamino)ethoxy)phenyl)-2-(2-isopropylphenyl)hexan-1-one], in assay [1] (setting [4]), the “Maximal % Change in GPN Response” value is listed as 233% and the EC50 was 0.33 µM.

As to `CC(C)C(C(=O)c1ccc(OCCN(C)C)cc1)c1ccccc1` (stereo not drawn) [Example 11, 1-(4-(2-Dimethylaminoethoxy)-phenyl)-3-methyl-2-phenylbutan-1-one], in assay [1] (setting [4]), the “Maximal % Change in GPN Response” value turned out to be 54% and the EC50 is 3.3 µM.

For the molecule `CC/C(=C/c1ccc(OCCN(C)C)cc1)c1ccccc1` [Example 2, (Z)—N,N-Dimethyl-2-(4-(2-(phenyl)but-1-en-1-yl)phenoxy)ethan-1-amine trifluoroacetate], in assay [1] (setting [4]), the “Maximal % Change in GPN Response” value was determined as 62% and the EC50 worked out at 14.1 µM.

For the molecule `CCCCC(C(=O)c1ccc(OCCN(C)C)cc1)c1ccccc1` (stereo not drawn) [MC150235, 1-(4-(2-(Dimethylamino)ethoxy)phenyl)-2-phenylhexan-1-one], in assay [1] (setting [4]), the “Maximal % Change in GPN Response” value came to 87% and the EC50 came to 2.4 µM. The “GCase activity relative to non-treated cells” value in assay [2] is “increase in GCase activity”.

Regarding `CC/C(=C\c1ccccc1)c1ccc(OCCN(C)C)cc1` [Example 9, (E)-N,N-Dimethyl-2-(4-(1-phenylbut-1-en-2-yl)phenoxy)ethan-1-amine], in assay [1] (setting [4]), the “Maximal % Change in GPN Response” value was 53% and the EC50 came to 3 µM.

As for `C/C(=C/c1ccc(OCCN2CCCC2)cc1)c1ccccc1` [Example 5, (Z)-1-(2-(4-(2-phenylprop-1-en-1-yl)phenoxy)ethyl)pyrrolidine], in assay [1] (setting [4]), the “Maximal % Change in GPN Response” value amounted to 72% and the EC50 came out at 2.1 µM.

Take `CC(C)CCC(C(=O)c1ccc(OCCN(C)C)cc1)c1ccccc1` (stereo not drawn) [Example 13]: in assay [1] (setting [4]), the “Maximal % Change in GPN Response” value came to 191% and the EC50 stood at 1.5 µM.

Consider `C=C(C)c1ccccc1C(CCCC)C(=O)c1ccc(OCCN(C)C)cc1` (stereo not drawn) [Example 17], for which, in assay [1] (setting [4]), the “Maximal % Change in GPN Response” value was found to be 275% and the EC50 was found to be 2.2 µM.

As for `CCC(Cc1ccc(OCCN(C)C)cc1)c1ccccc1` (stereo not drawn) [MC210155, N,N-Dimethyl-2-(4-(2-phenylbutyl)phenoxy)ethan-1-amine trifluoroacetate], in assay [1] (setting [4]), the “Maximal % Change in GPN Response” value came to 154% and the EC50 was found to be 4.8 µM. The “GCase activity relative to non-treated cells” value in assay [2] is reported as “increase in GCase activity”.

`CCCCC(=Cc1ccc(OCCN(C)C)cc1)c1ccccc1` (stereo in doubt) [Example 4, (Z)—N,N-dimethyl-2-(4-(2-phenylhex-1-en-1-yl)phenoxy)ethan-1-amine trifluoroacetate]: in assay [1] (setting [4]), the “Maximal % Change in GPN Response” value is on record as 56% and the EC50 worked out at 7.2 µM.

As for `CC(C)CC(C(=O)c1ccc(OCCN(C)C)cc1)c1ccccc1` (stereo not drawn) [Example 14, 1-(4-(2-(Dimethylamino)ethoxy)phenyl)-4-methyl-2-phenylpentan-1-one], in assay [1] (setting [4]), the “Maximal % Change in GPN Response” value came to 108% and the EC50 came to 0.7 µM.

With `CC/C(=C\c1ccc(OCCN(C)C)cc1)c1ccccc1` [Example 1, (E)-N,N-Dimethyl-2-(4-(2-(phenyl)but-1-en-1-yl)phenoxy)ethan-1-amine], in assay [1] (setting [4]), the “Maximal % Change in GPN Response” value came to 70% and the EC50 turned out to be 6 µM.

Consider `CC/C(=C\c1ccccc1)c1ccc(OCCN2CCCC2)cc1` [Example 10, (E)-1-(2-(4-(1-Phenylbut-1-en-2-yl)phenoxy)ethyl)pyrrolidine], for which, in assay [1] (setting [4]), the “Maximal % Change in GPN Response” value is 48% and the EC50 was 1.1 µM.

Take `CC/C(=C\c1ccc(OCCN2CCCC2)cc1)c1ccccc1` [Example 3, (E)-1-(2-(4-(2-phenylbut-1-en-1-yl)phenoxy)ethyl)pyrrolidine]: in assay [1] (setting [4]), the “Maximal % Change in GPN Response” value was determined as 175% and the concentration giving a half-maximal response (EC50) turned out to be 5.3 µM.

`CC/C(=C(\c1ccccc1)c1ccc(OCCN(C)C)cc1)c1ccccc1` [Tamoxifen, reference compound]: in assay [3], the “increase in GPN-induced calcium response” value is recorded as 40+/−20%. In assay [1] (72 hours compound treatment, GPN response), the “increase in calcium response compared with 0.1% DMSO treated Gaucher patient cells” value stood at 200±50%. Moreover, in assay [1] (Gaucher patient cells, 72 hours, confirmed in triplicate), the “activity to increase lysosomal calcium signaling (Prestwick Chemical Library screen)” value was “active compound”.

`CCCCC(C(=O)c1ccc(OCCN(C)C)cc1)c1ccccc1CC` (stereo not drawn) [Example 16, 1-(4-(2-(dimethylamino)ethoxy)phenyl)-2-(2-ethylphenyl)hexan-1-one]: in assay [1] (setting [4]), the “Maximal % Change in GPN Response” value is on record as 138% and the EC50 came to 0.65 µM.
